The values that follow come from patent publication US20060019883A1, “Use of cyclin D1 inhibitors” (priority 2003, published 2006).

“Also recorded” adds a separate entry of the source.

This assay concerns ER-positive breast cancer. The assay can be described thus: Randomised clinical trial: 2 years of tamoxifen treatment or no adjuvant treatment, breast cancer specific survival in relation to cyclin D1. The assay is classed as in vivo, patients. The settings on record: for Median survival time of deceased patients / Mortality rate: tumours with >90% ER positive cells. An excerpt:
The breast cancer material used in this study initially included 168 post-menopausal (>55 years old) patients with small (T0-T1) node-negative (N0) tumours. […] Data regarding breast cancer specific survival was obtained from the Swedish Cancer Registry (2002) resulting in a mean follow-up time of 18 years (range 15-22 years). Representative parts of the tumours were assembled in a tissue array, sectioned and immunohistochemically stained for ER (antibodies M7047 from Dako, Denmark, diluted 1/200) and cyclin D1 (M7155, Dako, Denmark, 1/100). […] The alternative model is that cyclin D1 could sequester cdk-inhibitors thereby effecting the G1/S control and tamoxifen response.
E: Cumulative total survival in the patient group of cyclin D1 high breast cancer subdivided according to tamoxifen treatment or nor treatment.

[1] abbreviates: High CD1 and tamoxifen treatment.
Where [2] appears, read: Moderate/low CD1 and tamoxifen treatment.

As to `CC/C(=C(\c1ccccc1)c1ccc(OCCN(C)C)cc1)c1ccccc1` [tamoxifen], the “Difference in survival for tamoxifen in comparison to no treatment” value (102 tumours with >90% ER positive cells) was “marked difference in survival”; the “Difference in survival for tamoxifen in comparison to no treatment” value (tumours lacking or expressing low ER and tumours with 10-90% ER positive cells) is “did not show any significant difference in survival”. Besides, the “Median survival time of deceased patients” value was determined as 47 months* under setting [1] and 169 months under setting [2]. Further, the Mortality rate reads like this: under setting [1], 39%; under setting [2], 63%. For the setting “tumours with high cyclin D1”, the “Difference in survival between tamoxifen and no treatment” value is reported as “this difference was eliminated; also recorded: little or no effect”.
